Experimental data reported in article PMC9233675, “Ru(II) photocages enable precise control over enzyme activity with red light” (Nature Communications, 2022).
pIC50: −log10 of the molar value. Where “and” joins values, the source holds several entries; their conditions need not be identical. Equal values may be shown once. Read-outs that look alike come from different tables or passages of the source.

Key:
CYP19A1 = biological target: T1, CYP19A1 (Homo sapiens, UniProt P11511); assay: In cell activity assay for CYP19A1 (dibenzylfluorescein conversion, HEK293 T-Rex cells); type: cell-based; conditions: for % Enzyme Activity: CYP19A1, dark
T1 sequence (P11511 1-503): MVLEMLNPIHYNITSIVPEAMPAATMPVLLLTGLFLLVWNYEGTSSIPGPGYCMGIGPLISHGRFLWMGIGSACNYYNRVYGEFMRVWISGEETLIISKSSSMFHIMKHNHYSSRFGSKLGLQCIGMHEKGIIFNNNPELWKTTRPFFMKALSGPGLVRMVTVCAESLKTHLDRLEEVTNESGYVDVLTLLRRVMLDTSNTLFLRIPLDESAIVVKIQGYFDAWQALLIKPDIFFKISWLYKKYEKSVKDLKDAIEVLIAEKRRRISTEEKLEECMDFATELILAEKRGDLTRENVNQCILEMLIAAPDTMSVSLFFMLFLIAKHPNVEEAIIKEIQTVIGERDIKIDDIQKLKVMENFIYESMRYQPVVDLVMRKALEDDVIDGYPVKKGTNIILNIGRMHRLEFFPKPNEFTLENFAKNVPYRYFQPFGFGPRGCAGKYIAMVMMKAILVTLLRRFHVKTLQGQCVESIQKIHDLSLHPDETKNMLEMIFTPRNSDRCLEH
Protocol: Thus, the activity against CYP19A1 was evaluated using a recently developed in-cell fluorometric assay.
REE or DBF was added as described above.

CYP1B1 = biological target: T2, CYP1B1 (Homo sapiens, UniProt Q16678); assay: In cell activity assay for CYP1B1 (7-ethoxyresorufin conversion, HEK293 T-Rex cells); conditions: for % Enzyme Activity red light / % Enzyme Activity: CYP1B1; for % Enzyme Activity red light: 660 nm light (58.7 J/cm2); for % Enzyme Activity: dark; for pIC50: n = 3
T2 sequence (Q16678 1-543): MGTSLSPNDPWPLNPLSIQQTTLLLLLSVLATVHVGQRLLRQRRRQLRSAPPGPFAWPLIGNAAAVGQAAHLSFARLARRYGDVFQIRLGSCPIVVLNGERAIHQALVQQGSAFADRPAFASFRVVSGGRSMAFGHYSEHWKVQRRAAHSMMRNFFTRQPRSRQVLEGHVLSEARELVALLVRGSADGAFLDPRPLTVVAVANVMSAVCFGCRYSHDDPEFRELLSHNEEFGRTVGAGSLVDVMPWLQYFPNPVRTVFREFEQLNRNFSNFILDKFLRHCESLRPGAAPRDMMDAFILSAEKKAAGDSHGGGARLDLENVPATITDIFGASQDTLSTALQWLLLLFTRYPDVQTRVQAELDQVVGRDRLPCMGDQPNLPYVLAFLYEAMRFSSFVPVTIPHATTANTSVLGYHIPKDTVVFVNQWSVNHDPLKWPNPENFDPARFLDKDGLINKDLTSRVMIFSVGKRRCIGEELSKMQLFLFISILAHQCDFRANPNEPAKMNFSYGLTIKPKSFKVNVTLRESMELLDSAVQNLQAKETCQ
Excerpt: To rigorously assess the activity of inhibitors under biologically relevant conditions, an assay was developed for screening of CYP1B1 activity in live cells.
A stable HEK cell line was created with CYP1B1 expression under the control of tetracycline to facilitate regulated and titratable expression (see the Methods section for more details). […] The fluorogenic substrate, 7-ethoxyresorufin (REE), is a validated substrate for both CYPs and was used in both assays. Cytochrome P450 oxidoreductase (POR) is the required reductase partner for CYPs, and was also overexpressed in these systems to improve catalytic efficiency and the resulting signal for the assay.
Cell lines were generated in the HEK293 T-Rex cell line. Following transfection, cells were selected with 500 μg/mL Zeocin, and 7.5 μg/mL Blasticidin to create a stable pool. Inducible expression of CYP and POR was confirmed by immunoblot. […] The lines were maintained with 250 μg/mL Zeocin and 7.5 μg/mL Blasticidin to ensure continued selective pressure.
Cell lines were seeded onto Geltrex coated 96-well plates at 40,000 cells/well, and grown overnight in DMEM media containing 1 μg/mL tetracycline. The media was then replaced with Opti-MEM supplemented with 2% FBS and 1 μg/mL tetracycline. Compounds were serially diluted in Opti-MEM supplemented with 2% FBS and 1 μg/mL tetracycline and an equal volume of compound added to the cells (n = 3). Following a 1 h incubation, resorufin ethyl ether (REE; for CYP1B1 and 1A1) or dibenzylfluorescein (DBF; for 19A1) was added to the cells for a total concentration of 5 μM for REE and 1 μM for DBF. […] Dose–response curves were generated in Prism and normalized using the no-compound control (set as 100% activity) and the no-cell control (set as 0% activity; this value in the raw data reflects the background fluorescence of the dye alone).
For the light-activated compounds, the experiment was modified as follows: Cells were seeded and grown overnight as described above. Media was replaced with L-15 containing 1 μg/mL tetracycline; L-15 media was used in place of opti-MEM™ to maintain CO2 outside the incubator, and to prevent cellular damage from light. Compounds were serially diluted in L-15 with 1 μg/mL tetracycline and added to the cells followed by a 1 h incubation. […] REE or DBF was added as described above.

[1] = system: cytochrome P450 enzymes in phLMs; assay: Inhibition of cytochrome P450 enzymes in pooled human liver microsomes (phLM); type: biochemical; conditions: for enzyme activity pHLM: dark, scale 0–100
Excerpt: Pooled human liver microsomes were used to test the potential impact of the inhibitors on multiple polymorphisms of highly promiscuous, drug metabolizing CYPs[27]. There are more than 10 different CYPs in this preparation, and the use of pooled microsomes ensures that genetic variability in CYPs is represented. […] This is notable, as the liver CYPs have evolved to bind the widest possible variety of molecules.
Commercial preparations of pooled human liver microsomes come from 50 individuals, providing representation of biologically relevant CYP variants. Compounds were screened for inhibition of cytochrome P450 enzymes in phLMs using a 96-well kinetic assay. […] Compound stocks were diluted in dose–response, and added in 100 mM potassium phosphate buffer pH 7.8 with 50 µM 7-benzoyloxy-4-trifluoromethylcoumarin (Corning, prepared as a 10 mM DMSO stock) and 16 µg of phLMs (XenoTech, prepared as 20 mg protein/mL suspended in 250 mM sucrose) per well (n = 3). The compounds were incubated for 5 min in the absence of light at 25 °C. The 96-well plate was then either protected from light or irradiated with red light for 1 h (660 nm, 58.7 J/cm^2). Enzymatic turnover was initiated upon addition of NADPH (TCI, prepared immediately prior to addition) at a concentration 1.2 mM per well. To determine background fluorescence from the assay, NADPH was omitted from several control wells. The reactions were immediately placed in a SpectraFluor Plus plate reader (Tecan) preheated to 37 °C, and fluorescence measurements taken every 3 min for 120 min with excitation of 435 nm and emission of 525 nm. Fluorescence measurements in the […], and the data was processed with GraphPad Prism 6. The linear portion of the signal for each dose point with respect to time was first fitted to a line to determine the rate. The resulting slope of these lines was then plotted against the logarithmic concentration of the study compound to provide a dose–response curve.

For `COc1ccc(/C=C/c2cc[n+]([Ru-4]345([n+]6ccccc6-c6cccc([n+]63)-c3cccc[n+]34)[n+]3c(cc(C(=O)[O-])c4ccccc43)-c3cc(C(=O)[O-])c4ccccc4[n+]35)cc2)c(OC)c1` [Compound 6], the “% Enzyme Activity” value (CYP19A1; Log Conc 0.045757) was 105.406% and 101.538% and 104.022%, the “% Enzyme Activity” value (CYP19A1; Log Conc 0.522879) was 104.302% and 98.6869% and 100.038% and the “% Enzyme Activity” value (CYP19A1; Log Conc 1) was 98.3957% and 97.4287% and 99.555%. The “% Enzyme Activity” value (CYP19A1; Log Conc 1.47712) was 84.792% and 87.3743% and 76.9903%, the “% Enzyme Activity” value (CYP19A1; Log Conc -0.43136) was 108.571% and 102.071% and 105.115% and the “% Enzyme Activity” value (CYP19A1; Log Conc -0.90849) was 106.835% and 107.302% and 104.318%. The “% Enzyme Activity” value (CYP19A1; Log Conc -1.38561) was 104.082% and 105.269% and 104.335%, the “% Enzyme Activity” value (CYP19A1; Log Conc -1.86273) was 107.692% and 92.0059% and 100.302% and the pIC50 (CYP19A1; Dark, conversion of dibenzylfluorescein (DBF), read-out: IC50 CYP19A1 Dark) was under 4.52. The pIC50 (CYP19A1; Light: 660 nm, 58.7 J/cm^2, DBF, read-out: IC50 CYP19A1 Light) was 4.72, the “SI (1B1:19A1)” value (CYP19A1; ratio of IC50 CYP19A1 to CYP1B1, for complexes 4–6 IC50 (light)) was 62,800 and the “% Enzyme Activity red light” value (CYP1B1; Log Conc 0.39794) was -2.704% and -2.565%. The “% Enzyme Activity red light” value (CYP1B1; Log Conc 1) was -2.451% and -1.971%, the “% Enzyme Activity red light” value (CYP1B1; Log Conc -0.20412) was -2.413% and -1.554% and the “% Enzyme Activity red light” value (CYP1B1; Log Conc -0.80618) was -1.314% and -2.085%. The “% Enzyme Activity red light” value (CYP1B1; Log Conc -1.40824) was -2.274% and -3.677%, the “% Enzyme Activity red light” value (CYP1B1; Log Conc -2.0103) was 1.567% and 0.556% and the “% Enzyme Activity red light” value (CYP1B1; Log Conc -2.61236) was 27.0407% and 26.6869%. For the same compound, the “% Enzyme Activity red light” value (CYP1B1; Log Conc -3.21442) was 48.2689% and 41.5972%, the “% Enzyme Activity red light” value (CYP1B1; Log Conc -3.81648) was 59.7422% and 63.5835% and the “% Enzyme Activity red light” value (CYP1B1; Log Conc -4.41854) was 78.0389% and 65.5042%. The “% Enzyme Activity red light” value (CYP1B1; Log Conc -5.0206) was 106.495% and 94.3139%, the “% Enzyme Activity red light” value (CYP1B1; Log Conc -5.62266) was 87.0104% and 112.181% and the “% Enzyme Activity” value (CYP1B1; Log Conc 0.39794) was 37.9328% and 31.3874%. For the same compound, the “% Enzyme Activity” value (CYP1B1; Log Conc 1) was -5.282% and -4.5489%, the “% Enzyme Activity” value (CYP1B1; Log Conc -0.20412) was 83.1691% and 81.3495% and the “% Enzyme Activity” value (CYP1B1; Log Conc -0.80618) was 99.722% and 104.043%. For the same compound, the “% Enzyme Activity” value (CYP1B1; Log Conc -1.40824) was 109.148% and 104.422%, the “% Enzyme Activity” value (CYP1B1; Log Conc -2.0103) was 132.424% and 133.005% and the “% Enzyme Activity” value (CYP1B1; Log Conc -2.61236) was 99.1913% and 124.791%. For the same compound, the “% Enzyme Activity” value (CYP1B1; Log Conc -3.21442) was 127.496% and 122.416%, the “% Enzyme Activity” value (CYP1B1; Log Conc -3.81648) was 106.293% and 106.621% and the “% Enzyme Activity” value (CYP1B1; Log Conc -4.41854) was 105.939% and 103.083%. The “% Enzyme Activity” value (CYP1B1; Log Conc -5.0206) was 100.606% and 105.459%, the “% Enzyme Activity” value (CYP1B1; Log Conc -5.62266) was 101.365% and 96.184% and the pIC50 (CYP1B1; read-out: IC50 CYP1B1 Dark, Dark, conversion of 7-ethoxyresorufin (REE)) was 5.72. For the same compound, the pIC50 (CYP1B1; read-out: IC50 CYP1B1 Light, Light: 660 nm, 58.7 J/cm^2, REE) was 9.52, the pIC50 ([1]; Dark, conversion of 7-benzoyloxy-4-trifluoromethylcoumarin, read-out: IC50 phLM Dark) was about 4.52 and the pIC50 ([1]; Light: 660 nm, 58.7 J/cm^2, read-out: IC50 phLM Light) was 5.89. The “enzyme activity pHLM” value ([1]; Log conc 0.273001) was 89.9976, the “enzyme activity pHLM” value ([1]; Log conc 0.875061) was 84.6565 and the “enzyme activity pHLM” value ([1]; Log conc 1.47712) was 45.9092. The “enzyme activity pHLM” value ([1]; Log conc -0.329059) was 93.178, the “enzyme activity pHLM” value ([1]; Log conc -0.931119) was 88.2981 and the “enzyme activity pHLM” value ([1]; Log conc -1.53318) was 91.697. The “enzyme activity pHLM” value ([1]; Log conc -2.13524) was 93.7121 and the “SI (1B1:phLM)” value ([1]; ratio of IC50 phLM to CYP1B1, for complexes 4–6 IC50 (light)) was 4300.
